Results on one molecule are retold here after publication PMC6269653, “Stability and Antioxidant Activity of Semi-synthetic Derivatives of 4-Nerolidylcatechol” (Molecules, 2012).

A short description of data set [1]: ABTS radical-scavenging activity. It counts as biochemical. The following applies: compounds tested at 250 µM; mean ± standard deviation, n = 3. As to the method:
The ABTS assay used herein was based on the method of Re et al. with slight modifications. Substances at concentrations of 250 µM, BHT or BHA were added to dilute ABTS solution and the absorbance at […] was measured. The antioxidant activity was calculated using the equation: % inhibition = 100 × (1 − sample abs/control abs).

The next data set concerns Plasmodium berghei. The following applies: oral doses of 1–10 mg/kg/day (2.5–25 µmol/kg/day), 4-day suppressive test; cited from earlier work.
Data set [2] can be described thus: DPPH radical-scavenging activity. The class given is biochemical. The note with it: compounds tested at 250 µM; mean ± standard deviation, n = 3. How it is done:
The measurement of the scavenger activity of DPPH• was carried out according to the method of Molineux with modifications. Substances at 250 µM were added, at an equal volume, to the methanol solution of DPPH• ([…]). After 15 min at room temperature, the absorbance was recorded at 517 nm (sample abs). The experiment was repeated three times. BHT, BHA were used as controls. Values denote percentage of DPPH free radical inhibition. The antioxidant activity was calculated using the equation: % inhibition = 100 × (1 − sample abs/control abs).
For orientation: Loss of DPPH colour is used to gauge radical scavenging.

The subject of data set [3] is 3T3L1 mouse embryonic fibroblast cell line. As to the kind of experiment: Cellular antioxidant activity (oxidation of DCFH-DA). The class given is cell-based. Details: inhibition of the oxidation of DCFH-DA in 3T3L1 cells: concentration or dose not given beside the values. The following applies: over the observation period of 60 min. As to the method: These tests evaluate the reducing effect of a given substance on the radical species formed in situ during these assays leading to a decrease in color versus controls that is measured spectrophotometrically. […] Thus, at a concentration of 250 µM, 4-NC inhibited DPPH• and ABTS+• by 97% and 95%, respectively. Mono-O-substituted 4-NC derivatives 2–5 inhibited ABTS+• by 89–93%. […] The antioxidant activity was also evaluated in mouse embryonic 3T3L1 fibroblasts. In this assay DCFH-DA (2',7'-dichlorofluorescein diacetate) is hydrolyzed by intracellular esterases and then oxidized by reactive oxygen species (ROS) to the fluorescent compound 2'-7'-DCF. An active antioxidant substance can inhibit the transformation of fatty acids to fatty acid hydroperoxides in the cell membranes and thereby inhibit the oxidation of DCFH-DA.
The antioxidant activity of 4-NC and semi-synthetic derivatives of 4-NC was evaluated on the 1st and 30th days after dissolving the substances in DMSO at a concentration of 10 mM and storage in a freezer at −20 °C. This experiment permitted the evaluation of the relative stability of the antioxidant activity of 4-NC, derivatives of 4-NC, BHT and BHA. Thus, cellular antioxidants were evaluated using the mouse embryonic fibroblast 3T3L1 cell line. […] The presence of mono-O or di-O,O substituent groups in the 4-NC derivatives can confer stability relative to 4-NC. Such chemical stability is highly desirable when contemplating the use of such substances in cosmetic and pharmaceutical formulations and foods. Here, 4-NC dissolved in DMSO lost more than 80% of its antioxidant activity after 30 days in the freezer.
Intracellular ROS production was detected using the non-fluorescent cell permeating compound, 2'7'-dichlorofluorescein diacetate (DCF-DA), as described by Wolfe and Liu. DCF-DA is hydrolyzed by intracellular esterases and then oxidized by hydroperoxides into the fluorescent compound, 2'-7'-DCF. 3T3-L1 cells were seeded at a density of 6 × 10^4 cells/well in a 96-well microplate in 100 μL of growth medium. 24 h after seeding, the growth medium was removed and the wells were washed with PBS. Then, a 10 μM solution of DCFH-DA dissolved in Hank’s buffer (100 μL) was added to wells and incubated for 30 min at 37 °C and 5% CO2. The cells were washed first with PBS (100 μL) then EEP (100 µL) and samples having different concentrations were added. The fluorescence was immediately measured at an excitation wavelength of 485 nm and emission wavelength of 520 nm over 60 min at 5 min intervals. Controls with/without DCFH-DA were prepared and subjected to analogous procedures. Quercetin, BHA and BHT were used as positive controls of antioxidant activity.

Data set [4] has as its system human leukemia cells (HL-60 and CEM). Details: method as in ref 1 = [1]; 1. Pinto A.C.S. Pessoa C.O. Costa-Lotufo L.V. Moraes M.O. Moraes M.E.A. Cavalcanti B.C. Nunomura S.M. Pohlit A.M. In vitro cytotoxicity of Pothomorphe peltata (L.) Miquel (Piperaceae), isolated 4-nero. The following applies: cited from earlier work.
In a further data set the test system is Artemia franciscana. As to the kind of experiment: Brine shrimp assay. The following applies: in vivo.
A short description of another data set: Brine shrimp assay. The following applies: Artemia franciscana (brine shrimp), in vivo; read-out: Toxicity Brine shrimp (Artemia franciscana) (LC50). Details: species or system Artemia franciscana.

Marks after values point to notes of the source that are not given here.

`C=CC(C)(CC/C=C(\C)CCC=C(C)C)c1ccc(OC(C)=O)c(OC(C)=O)c1` (stereo not shown) [Compound 7, O,O-diacetyl-4-nerolidylcatechol]: the “ABTS (%) percentage of inhibition” value in data set [1] was 8.60 ± 0.10 ^b %. In addition, the “in vivo inhibitory activity in P. berghei-infected mice” value with Plasmodium berghei is given as “significant in vivo inhibitory activity”. In addition, the “DPPH• (%) percentage of inhibition” value in data set [2] is given as 6.36 ± 1.15 ^c %. Besides, the “inhibition of the oxidation of DCFH-DA in 3T3L1 cells” value in data set [3] is given as not below 20%. Moreover, the IC50 – broadly, the concentration needed to halve the response being measured – in data set [4] was 15.5 to 15.6 µM. In addition, in the data set with Artemia franciscana, the “cytotoxic activity against Artemia franciscana in the brine shrimp assay” value is given as “moderately toxic”. The median lethal concentration (LC50) (usually the concentration lethal to half of the exposed cells or organisms) in the data set “Brine shrimp assay” was 83 µM.
